Test results as given in patent publication US10744127B2, “MDR-reversing 8-hydroxy-quinoline derivatives” (MAGYAR TUDOMÁNYOS AKADÉMIA TERMÉSZETTUDOMÁNYI KUTATÓKÖZPONT, priority 2016, dated 2020).
Where two headings read alike, the source gives them in different places. One block for each compound: values may come before it.

Columns and labels:
[1] = system: A431 and A431-B1 cell lines; experiment: Selective toxicity in A431 and A431-B1 cell lines; type: cell-based, human; details: A431 versus P-gp-transfected A431-B1
Protocol: (§1) Cell survival was measured by the PrestoBlue® Cell Viability Reagent (Life Technologies, USA). Cells were seeded in 100 μl medium at a density of 5000 cells/well in 96-well plates; the serially diluted drug was added the following day. Cells were then incubated for 72 hours at 37° C. in 5% CO2; the drug containing medium was removed, and the PrestoBlue® reagent was added according to the manufacturer's instructions. Fluorescence of the cells was measured by a Perkin Elmer EnSpire multimode plate reader or Perkin Elmer Victor X3 microplate reader. Data were background corrected and normalized to untreated cells. Curves were fitted with the help of Prism software using the sigmoidal dose-response model. Curve fit statistics were used to determine IC50 values. Differences between the IC50 values of the respective cell lines were analyzed by two-sided […] unpaired Student's t test and results were considered statistically significant at a P value of <0.05 (*) or 0.01 (**).
(§2) Data on selective toxicity (expressed as Selectivity Ratio, SR) in two MDR models engineered by retroviral transfection of P-glycoprotein (A431/A431-B1 and MDCK II/MDCK II B1 cell lines) are presented in Table 3 and Table 4.
(§3) A431 is a human epidermoid carcinoma cell line. Its derivative, the A431-B1 cell line expresses P-gp due to retroviral transfection of the mdr1 gene Türk, D. et al (Türk, D. et al., 2009). MDCK II is a canine kidney cell line. MDCK II B1 was created by inserting the mdr1 gene with transposons [Pape V F S et al. 2015] Both cell express P-gp stably, and show a stable MDR phenotype. Culture conditions were identical as in the case of MES-SA cells.

MES-SA/Dx5 cell line = experiment: Cytotoxicity, PrestoBlue cell viability assay, MES-SA/Dx5; type: cell-based; details: Homo sapiens
Protocol: (§4) The human uterine sarcoma cell line MES-SA and its doxorubicin resistant counterpart MES-SA/Dx5 were obtained from ATCC (MES-SA: No. CRL-1976™, MES-SA-Dx5: No. CRL-1977™). MES-SA/Dx5 cells express high levels of P-gp, and therefore are multidrug resistant (MDR). Cells were cultured in DMEM supplemented with 10% FBS, 5 mmol/L glutamine and 50 unit/mL penicillin and streptomycin (Life Technologies).
as §1

[2] = system: MES-SA and multidrug-resistant MES-SA/Dx5 cell line; experiment: Selective toxicity (ratio of IC50 in MES-SA to IC50 in MES-SA/Dx5) and activity index; type: cell-based, human
From the text: Compounds having P-gp potentiated MDR-selective activity can be characterized by their inhibitory concentration (IC) with regard to a specific cancer cell line. Usually the IC value is given at a certain percentage ratio of non-inhibited molecules or surviving cells. For example an IC20 value of a compound on a cell line means that at this inhibitory concentration of the compound 80% of the cells are killed whereas 20% of the cells are still viable. A further characteristic of MDR-selective drugs is the selectivity ratio (SR), which is the ratio of the IC value measured in a non-multidrug resistant cell line to (i.e. divided by) the IC value measured in the corresponding transformed, multidrug-resistant cell line. The inverse value, the resistance ratio (RR) is calculated as the ratio of a compound's IC value against a multidrug resistant cell line divided by the parallel IC value of the same compound against a control non-multidrug resistant cell line. The Activity Index (AI) is calculated here as the ratio of the compound's selectivity ratio (SR) and the compound's IC50 value against the resistant cell. The AI reflects the level of simultaneous toxicity and selectivity towards multidrug-resistant cancer cells.
as §4, §1
Selectivity towards multidrug-resistant cells is expressed as the ratio of the IC50 value measured in the parental MES-SA and multidrug-resistant MES-SA/Dx5 cell line (Selectivity Ratio, SR).
A novel characteristic of the compounds presented in this invention is that they exert their selective cytotoxicity at low IC50 values. Simultaneous toxicity and selectivity towards multidrug-resistant cancer cells is reflected by the Activity Index (AI) of the compounds, which is the ratio of the selectivity ratio (SR) and the IC50 value on the resistant cell line.

MES-SA cell line = experiment: Cytotoxicity, PrestoBlue cell viability assay, parental MES-SA; type: cell-based; details: Homo sapiens; parental MES-SA cell line (Table 2a)
Protocol: as §4, §1

[3] = system: MES-SA and MES-SA/Dx5 cells; experiment: Selective toxicity in the presence of the P-gp inhibitor tariquidar; type: cell-based, human; details: selectivity ratio in the presence of tariquidar (1 μM)
Protocol: In the presence of tariquidar (an inhibitor of P-gp function), the toxicity of the compounds selectively diminishes in multidrug-resistant MES-SA/Dx5 cells, while the toxicity is unchanged against parental MESSA cells, which is reflected by a decrease in the selectivity ratio (SR (TQ)).
To investigate the contribution of P-glycoprotein to the cytotoxic effect of a compound, cell survival was measured in the presence of the P-glycoprotein inhibitor tariquidar (1 μM). Tariquidar (CAS 206873-63-4) can be obtained e.g. from Selleck, Houston, USA.

[4] = system: MDCK II and MDCK II B1 cell lines; experiment: Selective toxicity towards MDCK II and MDCK II B1 cell lines; type: cell-based, canine; details: MDCK II versus MDCK II B1
Protocol: as §1, §2, §3

[5] = system: P-gp-expressing MES-SA/Dx5 cells; experiment: P-gp switch assay (Calcein AM); type: cell-based, human; details: MES-SA/Dx5, single dose at IC20 (killing 80% of the cells), surviving population at 80% confluence, Calcein AM
Protocol: One million P-gp-expressing MES-SA/Dx5 cells were plated in a T25 cell culture flask. After 24 hours the compound of interest was added directly to the cells at a concentration corresponding to the IC20 value (killing 80% of the cells). After 5 days the culture media was removed, the cells were washed with PBS and the culture medium was exchanged. Cells were monitored daily and the recovery was recorded. The medium was changed every 5 days until the confluence of the cells reached 80%. At 80% confluence the cells were removed by gentle trypsinization, counted by an automated cell counter and stained with Calcein AM, a cellular dye able to detect the function of P-gp (Homolya 1993). P-gp-positivity was evaluated based on the ability of P-gp-expressing cells to extrude Calcein AM.

[6] = MES-SA/Dx5 (Table 2b), read-out: IC50 (μM) Dx5
[7] = multidrug-resistant MES-SA/Dx5 cell line (Table 2a), read-out: IC50 (nM) in MES-SA/Dx5 cell line
[8] = MES-SA / MES-SA/Dx5, without tariquidar (Table 5)
[9] = Mes-sa/Dx5 cell line, PrestoBlue assay, 72 hours (Table 1), read-out: IC50

melting point: 123 to 125 °C
Compound: Oc1c(CNC2CCCCC2)cc(Cl)c2cccnc12 [Example 6, 5-Chloro-7-((cyclohexylamino)methyl)quinolin-8-ol]
Selectivity Ratio (SR) (A431/A431-B1) [1]: 11.5

melting point: 206 to 209 °C
Compound: COc1ccc(CNCc2cc([N+](=O)[O-])c3cccnc3c2O)c(OC)c1 [Example 28, 7-(((2,4-Dimethoxybenzyl)amino)methyl)-5-nitroquinolin-8-ol]
IC50 (MES-SA/Dx5 cell line; [6]): 0.44 µM
IC50 (MES-SA/Dx5 cell line; [7]): 0.442 µM
SR ([2]; MES-SA / MES-SA/Dx5 (Table 2b)): 19.7
SR [2, 8]: 19.7
IC50 (MES-SA cell line): 8650 nM
SR (TQ) [3]: 1.6

Compound: O=[N+]([O-])c1cc(C2NCCc3sccc32)c(O)c2ncccc12 (stereo not shown) [Example 19, 5-Nitro-7-(4,5,6,7-tetrahydrothieno[3,2-c]pyridin-4-yl)quinolin-8-ol]
Selectivity Ratio (SR) (A431/A431-B1) [1]: 24.7

melting point: 184 to 187 °C
Compound: C/C(=N\Nc1ccc2ccc(CN3CCCCC3)c(O)c2n1)c1ccccc1O [Example 4, (E/Z)-2-(2-(1-(2-Hydroxyphenyl)ethylidene)hydrazinyl)-7-(piperidin-1-ylmethyl)quinolin-8-ol]
IC50 (MES-SA/Dx5 cell line; [6]): 0.16 µM
IC50 (MES-SA/Dx5 cell line; [9]): 0.16 µM
SR ([2]; MES-SA / MES-SA/Dx5 (Table 2b)): 5.9
Selectivity Ratio (SR) (A431/A431-B1) [1]: 11.7

Compound: COc1ccc(CNCc2cc(S(C)(=O)=O)c3cccnc3c2O)c(OC)c1 [Example 37, 7-(((2,4-Dimethoxybenzyl)amino)methyl)-5-(methylsulfonyl)quinolin-8-ol]
Selectivity Ratio (SR) (MDCK II/MDCK II B1) [4]: 8.9
Selectivity Ratio (SR) (A431/A431-B1) [1]: 16.7

melting point: 225 to 228 °C
Compound: C/C(=N\Nc1ccc2cccc(O)c2n1)c1ccccc1O [Example 1, (E/Z)-2-(2-(1-(2-Hydroxyphenyl)ethylidene)hydrazinyl)quinolin-8-ol]

Compound: O=C1NC2CCCCC2NC1c1cc(Cl)c2cccnc2c1O (mixture of isomers) [Example 22, (3R,4aS,8aS)-3-(5-Chloro-8-hydroxyquinolin-7-yl)octahydroquinoxalin-2(1H)-one and (3S,4aS,8aS)-3-(5-chloro-8-hydroxyquinolin-7-yl)octahydroquinoxalin-2(1H)-one]
Selectivity Ratio (SR) (A431/A431-B1) [1]: 18.8

Compound: Oc1c(C2NCCc3ccccc32)cc(Cl)c2cccnc12 (stereo not shown) [Example 13, 5-Chloro-7-(1,2,3,4-tetrahydroisoquinolin-1-yl)quinolin-8-ol]
IC50 (MES-SA/Dx5 cell line; [9]): 0.127 µM
Fraction of P-gp-negative cells (P3) in the population [5]: 88.00%
Fraction of P-gp-positive cells (P4) in the population [5]: 12.00%

melting point: 199 to 203 °C
Compound: COc1ccccc1CNCc1cc([N+](=O)[O-])c2cccnc2c1O [Example 29, 7-(((2-Methoxybenzyl)amino)methyl)-5-nitroquinolin-8-ol]
IC50 (MES-SA/Dx5 cell line; [7]): 2.09 µM
Selectivity Ratio (SR) ([2]; IC50 in MES-SA divided by IC50 in MES-SA/Dx5 (Table 2a)): 19.2
Selectivity Ratio (SR) (MDCK II/MDCK II B1) [4]: 17.1
IC50 (MES-SA cell line): 40600 nM
Selectivity Ratio (SR) (A431/A431-B1) [1]: 25.1

melting point: 248 to 250 °C
Compound: Oc1c(CN2CCCCC2)ccc2ccc(N/N=C/c3ccccn3)nc12 [Example 5, (E/Z)-7-(Piperidin-1-ylmethyl)-2-(2-(pyridine-2-ylmethylene)hydrazinyl)quinolin-8-ol]
IC50 (MES-SA/Dx5 cell line; [7]): 1.97 µM
SR [2, 8]: 20.9
IC50 (MES-SA cell line): 40500 nM
SR (TQ) [3]: 1.2
Fraction of P-gp-negative cells (P3) in the population [5]: 67.6%
Fraction of P-gp-positive cells (P4) in the population [5]: 32.40%

Compound: Cl.Oc1c(CNCc2ccccc2F)cc(Cl)c2cccnc12 [Example 12, 5-Chloro-7-({[(2-fluorophenyl)methyl]amino}methyl)quinolin-8-ol Hydrochloride]
Selectivity Ratio (SR) (MDCK II/MDCK II B1) [4]: 8.3

Compound: Oc1c(C2NCCc3sccc32)ccc2cccnc12 (stereo not shown) [Example 18, 7-(4,5,6,7-Tetrahydrothieno[3,2-c]pyridin-4-yl)quinolin-8-ol]
IC50 (MES-SA/Dx5 cell line; [9]): 0.157 µM
Fraction of P-gp-negative cells (P3) in the population [5]: 80.6%
Fraction of P-gp-positive cells (P4) in the population [5]: 19.40%

melting point: 213 to 214 °C
Compound: C/C(=N\Nc1ccc2cccc(O)c2n1)c1ccccn1 [Example 2, (E/Z)-2-(2-(1-(Pyridine-2-yl)ethylidene)hydrazinyl)quinolin-8-ol]

melting point: 129 to 132 °C
Compound: COc1ccc(CNCc2cc(Br)c3cccnc3c2O)cc1 [Example 10, 5-Bromo-7-(((4-methoxybenzyl)amino)methyl)quinolin-8-ol]
Selectivity Ratio (SR) (A431/A431-B1) [1]: 11.2

Compound: Cc1ccc2ccc(C3NCCc4sccc43)c(O)c2n1 (stereo not shown) [Example 20]
Selectivity Ratio (SR) (MDCK II/MDCK II B1) [4]: 10.0
Selectivity Ratio (SR) (A431/A431-B1) [1]: 13.2

Compound: COc1cc2c(cc1OC)C(c1cc(Cl)c3cccnc3c1O)NCC2 (stereo not shown) [Example 16, 5-Chloro-7-(6,7-dimethoxy-1,2,3,4-tetrahydroisoquinolin-1-yl)quinolin-8-ol]
SR [2, 8]: 10.3
SR (TQ) [3]: 0.9
Selectivity Ratio (SR) (A431/A431-B1) [1]: 24.7

melting point: 125 to 127 °C
Compound: COc1ccc(CNCc2cc(Cl)c3cccnc3c2O)cc1 [Example 7, 5-Chloro-7-(((4-methoxybenzyl)amino)methyl)quinolin-8-ol]
SR [2, 8]: 13.4
SR (TQ) [3]: 1.3
Selectivity Ratio (SR) (A431/A431-B1) [1]: 12.6

melting point: 135 to 137 °C
Compound: COc1ccccc1CNCc1cc(Br)c2cccnc2c1O [Example 8, 5-Bromo-7-(((2-methoxybenzyl)amino)methyl)quinolin-8-ol]
IC50 (MES-SA/Dx5 cell line; [6]): 0.16 µM
IC50 (MES-SA/Dx5 cell line; [9]): 0.161 µM
SR ([2]; MES-SA / MES-SA/Dx5 (Table 2b)): 13.5

Compound: O=[N+]([O-])c1cc(C2NCCc3ccccc32)c(O)c2ncccc12 (stereo not shown) [Example 15, 5-Nitro-7-(1,2,3,4-tetrahydroisoquinolin-1-yl)quinolin-8-ol]
IC50 (MES-SA/Dx5 cell line; [6]): 0.59 µM
IC50 (MES-SA/Dx5 cell line; [7]): 0.594 µM
SR ([2]; MES-SA / MES-SA/Dx5 (Table 2b)): 23.8
SR [2, 8]: 23.8
IC50 (MES-SA cell line): 12400 nM
SR (TQ) [3]: 1.4
Fraction of P-gp-negative cells (P3) in the population [5]: 67.2%
Fraction of P-gp-positive cells (P4) in the population [5]: 32.80%

Compound: Oc1c(C2NCCc3ccccc32)cc(Br)c2cccnc12 (stereo not shown) [Example 14, 5-Bromo-7-(1,2,3,4-tetrahydroisoquinolin-1-yl)quinolin-8-ol]
IC50 (MES-SA/Dx5 cell line; [6]): 0.13 µM
IC50 (MES-SA/Dx5 cell line; [9]): 0.13 µM
SR ([2]; MES-SA / MES-SA/Dx5 (Table 2b)): 7.8
Selectivity Ratio (SR) (A431/A431-B1) [1]: 13.7
